Several values for one entry are separate records, joined by “and”; a condition that tells them apart may be missing. Identical values can stand only once.
How the values were obtained:
[1] = system: SW-1 cells; assay: Caspase and PARP cleavage immunoblot in SW-1 cells; format: cell-based, mouse; settings: peptides by transfection, UCN-01 (5 μm) 24 hours
Method: Human melanoma cells LU1205 were transfected with the nucleic acid molecules that encode either ATF2^51-100 peptide or ATF2^51-60 peptide. Twenty-four hours after transfection, cells were treated with of UCN-01 (5 μm) for 24 hours. Immunoblotting analysis was performed using caspase 9 and PARP antibodies, and β-actin was used as a loading control (FIG. 6A). The same experiment was performed in SW-1 cells (FIG. 6B). Stars point to the position of the uncleaved form whereas arrows point to the cleaved products.
(§1) Effect on Apoptosis. Assessed next was the degree of apoptosis in SW1 cells under normal growth (spontaneous) as well as following treatment with chemotherapeutic drugs. Cells were analyzed to detect spontaneous (basal) or induced apoptosis [following treatment with the kinase inhibitor UCN-01 (kindly provided by NCI repository) for 36 hours]. Apoptosis was measured by using FACS (Ivanov et al., Mol. Cell, 2001, 7:517-28) to quantify the percentage of hypodiploid nuclei undergoing DNA fragmentation. Nucleation as a marker of apoptosis was monitored via DAPI staining of cells at indicated time points after their treatment. Caspase activity was monitored by immunoblots using antibodies to caspase 9 (Santa Cruz). PARP cleavage was monitored by corresponding antibodies (PharMingen).

[2] = system: SW1 melanoma cells; assay: Apoptosis of SW1 cells by FACS (hypodiploid nuclei); format: cell-based, mouse; settings: SW1 cells expressing peptide, given as control-to-peptide increase
Method: SW1 cells constitutively expressing the indicated ATF2 peptides were transfected with either TRE-Luc (FIG. 5A) or with Jun2-Luc (FIG. 5B), and proteins were prepared for analysis of luciferase activity after 18 hours. Analysis was performed in duplicate, and the data reflect three independent experiments. SW1 cells expressing the ATF2 peptides were analyzed to establish the degree of spontaneous (basal) apoptosis as well as apoptosis 24 hours following treatment with the chemotherapeutic drug UCN-01 (FIG. 5C). The data represent triplicate analysis reproduced three times.
as §1

[3] = system: SW1 tumors; assay: cDNA microarray gene expression profiling of SW1 tumors; format: in vivo, mouse; settings: down regulated, hybridizations #1-#4, listed as ATFp2
Text: FIGS. 8A and 8B show gene profiling analysis of SW1 tumors expressing the ATF2^51-100 peptide. Tumors generated, in the absence or presence of a peptide, were used as source of mRNA for array analysis of 10K mouse genes (see Example 5). […] In all cases, the data represent analyses carried out 4 times from 4 different pools of tumors.
To elucidate the molecular pathways affected by expression of the ATF2^51-100 peptide, we used cDNA microarray analysis to compare the RNA expression profiles of SW1 tumors that express this peptide or a control vector (FIG. 8A). The 10k mouse Gem 2 gene set (Incyte Genomics Inc, Palo Alto, Calif.) was printed at the NCI on poly-L-lysine-coated glass using a Biorobotics TASII arrayer (Cambridge, England). All protocols for manufacturing and hybridization of microarrays are posted on the NCI web site (see, e.g., nciarray.nci.nih.gov). Approximately 20 μg of total RNA were used in the reverse transcription reaction to directly label the probe with Cy-5 dUTP or Cy-3 dUTP (Amersham). Hybridizations were performed at 65° C. for 12-18 h in a hybridization volume of 35 μL. The hybridized arrays were scanned using an Axon GenePix 4000 scanner (Union City, Calif.) and fluorescence data were collected using the GenePix software.
mRNA was prepared from a pool of 4 tumors obtained from two different experiments. In both cases, tumors were excised 2 weeks after subcutaneous injection of cells. Because the fluorescently labeled Cy dyes may incorporate into the reverse-transcribed cDNA with different efficiencies, RNA isolated from both cell types was always labeled with both combinations of Cy dyes. […] SW1 vector control cells were labeled with Cy-3 (F532) and the SW1-ATF 51-100 cells were labeled with Cy-5 (F635).

Substance: ATF2^51-100: amino-terminal peptide of ATF2, amino acid residue 51 to 100 (about a 50 amino acid peptide), expressed in tumor cells (MTLKFGPARNDSVIVADQTPTPTRFLKNCEEVGLFNELASPFENEFKKAS; UniProt P15336 51-100, looked up, fragment)
- activation of caspase 9 (cleavage fragments) [1]: activation of caspase 9 even prior to treatment with UCN-01
- spontaneous (basal) apoptosis ([2]; absence of treatment): 12-55%
- UCN-01-induced apoptosis ([2]; treated with UCN-01): 20-77%
- Ratio ATFp2-Cy5 vs parental control-Cy3: Mt2 (metallothionein 2) ([3]; IMAGE: 334351): 0.3874 and 0.3888 and 0.4649 and 0.5780
- Ratio ATFp2-Cy5 vs parental control-Cy3: Hadh (hydroxyacyl-Coenzyme A dehydrogenase) ([3]; IMAGE: 368571): 0.3738 and 0.3752 and 0.5471 and 0.6286
- Ratio ATFp2-Cy5 vs parental control-Cy3: Crabp1 (cellular retinoic acid binding protein I) ([3]; IMAGE: 406272): 0.3248 and 0.361 and 0.3150 and 0.3569
- Ratio ATFp2-Cy5 vs parental control-Cy3: RIKEN cDNA 2900002K07 gene ([3]; IMAGE: 516935): 0.3227 and 0.3239 and 0.2740 and 0.3014
- Ratio ATFp2-Cy5 vs parental control-Cy3: Ptk2 (PTK2 protein tyrosine kinase 2) ([3]; IMAGE: 577544): 0.3803 and 0.3817 and 0.3913 and 0.4599
- Ratio ATFp2-Cy5 vs parental control-Cy3: Ifit1 (interferon-induced protein with tetratricopeptide repeats 1) ([3]; IMAGE: 616653): 0.2354 and 0.2363 and 0.2637 and 0.3054
- Ratio ATFp2-Cy5 vs parental control-Cy3: ESTs ([3]; IMAGE: 619632): 0.4707 and 0.4724 and 0.3928 and 0.6046
- Ratio ATFp2-Cy5 vs parental control-Cy3: Scya12 (small inducible cytokine A12) ([3]; IMAGE: 620800): 0.2911 and 0.2922 and 0.3318 and 0.4279
- Ratio ATFp2-Cy5 vs parental control-Cy3: ESTs ([3]; IMAGE: 621129): 0.4938 and 0.4955 and 0.3268 and 0.3091
- Ratio ATFp2-Cy5 vs parental control-Cy3: Casp6 (caspase 6) ([3]; IMAGE: 636228): 0.3777 and 0.3791 and 0.4947 and 0.6368
- Ratio ATFp2-Cy5 vs parental control-Cy3: Igh-1 (immunoglobulin heavy chain 1 (serum IgG2a)) ([3]; IMAGE: 636695): 0.3565 and 0.3578 and 0.4847 and 0.6503
- Ratio ATFp2-Cy5 vs parental control-Cy3: S100a9 (S100 calcium-binding protein A9 (calgranulin B)) ([3]; IMAGE: 720190): 0.3486 and 0.3498 and 0.362 and 0.3547
- Ratio ATFp2-Cy5 vs parental control-Cy3: Jsp18 (ubiquitin specific protease 18) ([3]; IMAGE: 751642): 0.3213 and 0.3225 and 0.2989 and 0.2958
- Ratio ATFp2-Cy5 vs parental control-Cy3: Plat (plasminogen activator, tissue) ([3]; IMAGE: 836124): 0.4074 and 0.4089 and 0.4019 and 0.5488
- Ratio ATFp2-Cy5 vs parental control-Cy3: G0s2 (G0/G1 switch gene 2) ([3]; IMAGE: 864447): 0.4421 and 0.4583 and 0.383 and 0.3949
- Ratio ATFp2-Cy5 vs parental control-Cy3: Xlr (X-linked lymphocyte-regulated complex) ([3]; IMAGE: 1022928): 0.1598 and 0.1572 and 0.1540 and 0.1537
- Ratio ATFp2-Cy5 vs parental control-Cy3: Lgals7 (lectin galactose binding, soluble 7) ([3]; IMAGE: 1023899): 0.4381 and 0.4397 and 0.4481 and 0.4781
- Ratio ATFp2-Cy5 vs parental control-Cy3: Mus musculus, clone MGC: 19199 IMAGE: 4236882, mRNA, complete cds ([3]; IMAGE: 1037652): 0.4768 and 0.4785 and 0.4402 and 0.4792
- Ratio ATFp2-Cy5 vs parental control-Cy3: Isg15 (interferon-stimulated protein (15 kDa)) ([3]; IMAGE: 1068714): 0.321 and 0.4337 and 0.4643 and 0.5141
- Ratio ATFp2-Cy5 vs parental control-Cy3: Ifit3 (interferon-induced protein with tetratricopeptide repeats 3) ([3]; IMAGE: 1210036): 0.4750 and 0.4768 and 0.3824 and 0.3361
- Ratio ATFp2-Cy5 vs parental control-Cy3: Ensa (endosulfine alpha) ([3]; IMAGE: 1278511): 0.4501 and 0.4517 and 0.4544 and 0.4479

— patent publication US20090281025A1, “INHIBITION OF TUMOR GROWTH AND METASTASIS BY ATF2-DERIVED PEPTIDES” (Mount Sinai School Of Medicine of New York University, priority 2004, published 2009)
